Measured values as given in ChEMBL document CHEMBL3045592, “Studies of O,O-dimethyl α-(2,4-dichlorophenoxyacetoxy)ethylphosphonate (HW02) as a new herbicide. 1. Synthesis and herbicidal activity of HW02 and analogues as novel inhibitors of pyruvate dehydrogenase complex” (J Agric Food Chem, 2011).

Assays:
[1] = tested on: Amaranthus spinosus; test: Pre-emergence herbicidal activity against Amaranthus spinosus assessed as growth inhibition at 450 ai g/ha after 20 days by green house test; assay type: functional
[2] = tested on: Digitaria sanguinalis; test: Post-emergence herbicidal activity against Digitaria sanguinalis (hairy crabgrass) assessed as growth inhibition at 1500 ai g/ha after 20 days by green house test; assay type: functional
[3] = tested on: Chenopodium album; test: Post-emergence herbicidal activity against Chenopodium album assessed as growth inhibition at 75 ai g/ha after 20 days by green house test; assay type: functional
[4] = tested on: Medicago sativa; test: Post-emergence herbicidal activity against Medicago sativa (alfalfa) assessed as growth inhibition at 1500 ai g/ha after 20 days by green house test; assay type: functional
[5] = tested on: Medicago sativa; test: Pre-emergence herbicidal activity against Medicago sativa (alfalfa) assessed as growth inhibition at 1500 ai g/ha after 20 days by green house test; assay type: functional
[6] = tested on: Echinochloa crus-galli; test: Post-emergence herbicidal activity against Echinochloa crus-galli (barnyard grass) assessed as growth inhibition at 1500 ai g/ha after 20 days by green house test; assay type: functional
[7] = tested on: Amaranthus retroflexus; test: Post-emergence herbicidal activity against Amaranthus retroflexus assessed as growth inhibition at 1500 ai g/ha after 20 days by green house test; assay type: functional
[8] = tested on: Brassica rapa subsp. oleifera; test: Post-emergence herbicidal activity against Brassica rapa subsp. oleifera Si Yue Man assessed as growth inhibition at 1500 ai g/ha after 20 days by green house test; assay type: functional
[9] = tested on: Chenopodium album; test: Pre-emergence herbicidal activity against Chenopodium album assessed as growth inhibition at 75 ai g/ha after 20 days by green house test; assay type: functional
[10] = tested on: Setaria viridis; test: Post-emergence herbicidal activity against Setaria viridis (green foxtail) assessed as growth inhibition at 450 ai g/ha after 20 days by green house test; assay type: functional
[11] = tested on: Digitaria sanguinalis; test: Post-emergence herbicidal activity against Digitaria sanguinalis (hairy crabgrass) assessed as growth inhibition at 150 ai g/ha after 20 days by green house test; assay type: functional
[12] = tested on: Cucumis sativus; test: Herbicidal activity against Cucumis sativus Jin 4 (cucumber) assessed as inhibition of root growth after 3 days; assay type: functional, organism-based; details: Jin 4, 72 h
[13] = tested on: Digitaria sanguinalis; test: Pre-emergence herbicidal activity against Digitaria sanguinalis (hairy crabgrass) assessed as growth inhibition at 1500 ai g/ha after 20 days by green house test; assay type: functional
[14] = tested on: Amaranthus spinosus; test: Post-emergence herbicidal activity against Amaranthus spinosus assessed as growth inhibition at 75 ai g/ha after 20 days by green house test; assay type: functional
[15] = tested on: Digitaria sanguinalis; test: Post-emergence herbicidal activity against Digitaria sanguinalis (hairy crabgrass) assessed as growth inhibition at 450 ai g/ha after 20 days by green house test; assay type: functional
[16] = tested on: Chenopodium album; test: Pre-emergence herbicidal activity against Chenopodium album assessed as growth inhibition at 450 ai g/ha after 20 days by green house test; assay type: functional
[17] = tested on: Digitaria sanguinalis; test: Pre-emergence herbicidal activity against Digitaria sanguinalis (hairy crabgrass) assessed as growth inhibition at 450 ai g/ha after 20 days by green house test; assay type: functional
[18] = tested on: Digitaria sanguinalis; test: Pre-emergence herbicidal activity against Digitaria sanguinalis (hairy crabgrass) assessed as growth inhibition at 75 ai g/ha after 20 days by green house test; assay type: functional
[19] = tested on: Digitaria sanguinalis; test: Pre-emergence herbicidal activity against Digitaria sanguinalis (hairy crabgrass) assessed as growth inhibition at 150 ai g/ha after 20 days by green house test; assay type: functional
[20] = tested on: Echinochloa crus-galli; test: Post-emergence herbicidal activity against Echinochloa crus-galli (barnyard grass) assessed as growth inhibition at 450 ai g/ha after 20 days by green house test; assay type: functional
[21] = tested on: Chenopodium album; test: Pre-emergence herbicidal activity against Chenopodium album assessed as growth inhibition at 150 ai g/ha after 20 days by green house test; assay type: functional
[22] = tested on: Abutilon theophrasti; test: Pre-emergence herbicidal activity against Abutilon theophrasti (velvetleaf) assessed as growth inhibition at 450 ai g/ha after 20 days by green house test; assay type: functional
[23] = tested on: Chenopodium album; test: Post-emergence herbicidal activity against Chenopodium album assessed as growth inhibition at 450 ai g/ha after 20 days by green house test; assay type: functional
[24] = tested on: Abutilon theophrasti; test: Post-emergence herbicidal activity against Abutilon theophrasti (velvetleaf) assessed as growth inhibition at 150 ai g/ha after 20 days by green house test; assay type: functional
[25] = tested on: Amaranthus spinosus; test: Post-emergence herbicidal activity against Amaranthus spinosus assessed as growth inhibition at 450 ai g/ha after 20 days by green house test; assay type: functional
[26] = tested on: Setaria viridis; test: Pre-emergence herbicidal activity against Setaria viridis (green foxtail) assessed as growth inhibition at 150 ai g/ha after 20 days by green house test; assay type: functional
[27] = tested on: Digitaria sanguinalis; test: Post-emergence herbicidal activity against Digitaria sanguinalis (hairy crabgrass) assessed as growth inhibition at 75 ai g/ha after 20 days by green house test; assay type: functional
[28] = tested on: Cucumis sativus; test: Herbicidal activity against Cucumis sativus Jin 4 (cucumber) assessed as inhibition of stem growth after 3 days; assay type: functional, organism-based; details: Jin 4, 72 h
[29] = tested on: Amaranthus spinosus; test: Post-emergence herbicidal activity against Amaranthus spinosus assessed as growth inhibition at 150 ai g/ha after 20 days by green house test; assay type: functional
[30] = tested on: Abutilon theophrasti; test: Pre-emergence herbicidal activity against Abutilon theophrasti (velvetleaf) assessed as growth inhibition at 150 ai g/ha after 20 days by green house test; assay type: functional
[31] = tested on: Amaranthus retroflexus; test: Post-emergence herbicidal activity against Amaranthus retroflexus assessed as growth inhibition at 450 ai g/ha after 20 days by green house test; assay type: functional
[32] = tested on: Setaria viridis; test: Pre-emergence herbicidal activity against Setaria viridis (green foxtail) assessed as growth inhibition at 75 ai g/ha after 20 days by green house test; assay type: functional
[33] = tested on: Amaranthus spinosus; test: Pre-emergence herbicidal activity against Amaranthus spinosus assessed as growth inhibition at 150 ai g/ha after 20 days by green house test; assay type: functional
[34] = tested on: Chenopodium album; test: Post-emergence herbicidal activity against Chenopodium album assessed as growth inhibition at 150 ai g/ha after 20 days by green house test; assay type: functional
[35] = tested on: Setaria viridis; test: Post-emergence herbicidal activity against Setaria viridis (green foxtail) assessed as growth inhibition at 150 ai g/ha after 20 days by green house test; assay type: functional
[36] = tested on: Pisum sativum; test: Post-emergence herbicidal activity against Pisum sativum Zhongwan-2 (pea) assessed as growth inhibition at 450 ai g/ha after 20 days by green house test; details: Lathyrus oleraceus
[37] = tested on: Setaria viridis; test: Pre-emergence herbicidal activity against Setaria viridis (green foxtail) assessed as growth inhibition at 450 ai g/ha after 20 days by green house test; assay type: functional
[38] = tested on: Amaranthus spinosus; test: Pre-emergence herbicidal activity against Amaranthus spinosus assessed as growth inhibition at 75 ai g/ha after 20 days by green house test; assay type: functional
[39] = tested on: Amaranthus retroflexus; test: Pre-emergence herbicidal activity against Amaranthus retroflexus assessed as growth inhibition at 1500 ai g/ha after 20 days by green house test; assay type: functional
[40] = target: Pyruvate dehydrogenase complex (Vigna radiata var. radiata); test: Inhibition of PDHc in Vigna radiata var. radiata VC2778A shoot mitochondria assessed as decrease in rate of NADH formation using sodium pyruvate as substrate preincubated for 25 min before substrate addition measured after 1 min by spectrophotometric assay; assay type: protein-complex assay
[41] = tested on: Abutilon theophrasti; test: Pre-emergence herbicidal activity against Abutilon theophrasti (velvetleaf) assessed as growth inhibition at 75 ai g/ha after 20 days by green house test; assay type: functional
[42] = tested on: Setaria viridis; test: Post-emergence herbicidal activity against Setaria viridis (green foxtail) assessed as growth inhibition at 75 ai g/ha after 20 days by green house test; assay type: functional
[43] = tested on: Abutilon theophrasti; test: Post-emergence herbicidal activity against Abutilon theophrasti (velvetleaf) assessed as growth inhibition at 75 ai g/ha after 20 days by green house test; assay type: functional
[44] = tested on: Abutilon theophrasti; test: Post-emergence herbicidal activity against Abutilon theophrasti (velvetleaf) assessed as growth inhibition at 450 ai g/ha after 20 days by green house test; assay type: functional
[45] = tested on: Echinochloa crus-galli; test: Pre-emergence herbicidal activity against Echinochloa crus-galli (barnyard grass) assessed as growth inhibition at 1500 ai g/ha after 20 days by green house test; assay type: functional
[46] = tested on: Brassica rapa subsp. oleifera; test: Pre-emergence herbicidal activity against Brassica rapa subsp. oleifera Si Yue Man assessed as growth inhibition at 1500 ai g/ha after 20 days by green house test; assay type: functional
[47] = Toxicity against Oryza sativa (rice) assessed as growth inhibition at 450 ai g/ha post-emergent application measured after 20 days by green house crop selectivity test; assay type: organism-based; details: in vivo, read-out: GI
[48] = tested on: Brassica juncea; test: Post-emergence herbicidal activity against Brassica juncea assessed as growth inhibition at 450 ai g/ha after 20 days by green house test; assay type: functional

Structure (SMILES): COP(=O)(COC(=O)COc1ccc(Cl)cc1Cl)OC
- growth inhibition (GI) [1]: 52.5%
- growth inhibition (GI) [2]: <=50%
- growth inhibition (GI) [3]: 82.5%
- growth inhibition (GI) [4]: 90%
- growth inhibition (GI) [5]: 75%
- growth inhibition (GI) [6]: <=50%
- growth inhibition (GI) [7]: 90%
- growth inhibition (GI) [8]: 90%
- growth inhibition (GI) [9]: 0%
- growth inhibition (GI) [10]: 0%
- growth inhibition (GI) [11]: 0%
- IC50 [12]: 0.0577 µM
- growth inhibition (GI) [13]: 90%
- growth inhibition (GI) [14]: 62.5%
- growth inhibition (GI) [15]: 0%
- growth inhibition (GI) [16]: 52.5%
- growth inhibition (GI) [17]: 0%
- growth inhibition (GI) [18]: 0%
- growth inhibition (GI) [19]: 0%
- growth inhibition (GI) [20]: 0%
- growth inhibition (GI) [21]: 0%
- growth inhibition (GI) [22]: 47.5%
- growth inhibition (GI) [23]: 100%
- growth inhibition (GI) [24]: 99%
- growth inhibition (GI) [25]: 97.5%
- growth inhibition (GI) [26]: 0%
- growth inhibition (GI) [27]: 0%
- IC50 [28]: 7.79 µM
- growth inhibition (GI) [29]: 92.5%
- growth inhibition (GI) [30]: 0%
- growth inhibition (GI) [31]: 97.5%
- growth inhibition (GI) [32]: 0%
- growth inhibition (GI) [33]: 0%
- growth inhibition (GI) [34]: 99.5%
- growth inhibition (GI) [35]: 0%
- growth inhibition (GI) [36]: 87.5%
- growth inhibition (GI) [37]: 5%
- growth inhibition (GI) [38]: 0%
- growth inhibition (GI) [39]: 90%
- IC50 [40]: 19.7 µM
- growth inhibition (GI) [41]: 0%
- growth inhibition (GI) [42]: 0%
- growth inhibition (GI) [43]: 82.5%
- growth inhibition (GI) [44]: 100%
- growth inhibition (GI) [45]: <=50%
- growth inhibition (GI) [46]: 90%
- inhibition at 480 h [47]: 0%
- growth inhibition (GI) [48]: 100%
